In experiment [1] the test system is cultured cells derived from hyperplastic wounds. The experiment is described as follows: SRB cell viability, hyperplastic wound cells. It counts as cell-based, human. The settings on record: hyperplastic wound cell cultures, vs DMSO control, SRB assay. On the procedure:
(§1) The biological relevance of the screen was considerable since cells used for the screen were obtained from patients with hyperplastic wounds as well as healthy tissue. The experiments were repeated in triplicate within 96 well plates, with each well containing 4000 cells treated with between 0.1 1.0, or 10 μM of compound or DMSO as a control. The Sulforhodamine B assay (SRB) was used to measure cell viability.

Experiment [2] has as its system normal dermal fibroblast cultures. The experiment can be described thus: SRB cell viability, normal fibroblasts. It counts as cell-based, human. The following applies: SRB assay. On the procedure: as §1
(Sulforhodamine B stains cellular protein and so reports cell mass.)

Experiment [3] has as its system β-catenin. The experiment can be described thus: Western blot of β-catenin in hyperplastic wound cell cultures. The settings on record: vs DMSO control. It counts as cell-based, human. On the procedure:
Tissue samples were washed twice with PBS and lysed with Reporter Gene Assay Lysis Buffer (Roche). Lysates were centrifuged at 16,000×g for 5 minutes to remove cell debris and quantified using the Bicinchoninic Acid (BCA) Protein Assay (Pierce). Equal amounts of total protein were separated by electrophoresis through an SDS-polyacrylamide gel, transferred to a nitrocellulose membrane (Amersham), and immunoblotted overnight at 4° C. with primary antibodies against phosphoGSK3β ([…], rabbit polyclonal, New England Biolabs), β-catenin (mouse monoclonal, Upstate Biotechnology), total GSK3β (mouse monoclonal, Transduction Laboratories), and GAPDH (mouse monoclonal, Upstate Biotechnology). Horseradish Peroxidase (HRP)-tagged secondary antibodies and Enhanced ChemiLuminescence (Amersham) were used to detect hybridization. Densitometery was performed using the AlphaEaseFC software (Alpha Innotech). Western blotting was performed in triplicates to ensure reproducibility. β-catenin levels in cell cultures from hyperplastic scars treated with Nefopam or control were analyzed using Western blot analysis. […] GAPDH expression was included as a loading control.
(In general: Immunoblotting shows a protein as a band on a membrane.)

The subject of experiment [4] is aggressive fibromatosis (AF) tumours. The experiment can be described thus: Apc+/Apc1638N AF mouse model. Format: in vivo. The following applies: male Apc/Apc1638N mice. From the text:
The generation and phenotype of Apc/Apc1638N mice have been well characterized. These mice harbour a targeted mutation at codon 1638 in the Apc gene as a result of a neomycin insert in antisense orientation at exon 15. […] Treatment by daily oral gavaging began 2 months after Apc/Apc1638N mice were weaned and continued for 3 months. At autopsy, AF tumours and intestinal polyps were scored macroscopically. AF tumours and normal tissue were collected for protein extraction and fixed for histological examination.

Experiment [5] concerns β-catenin. The experiment is described as follows: Western blot/densitometry of β-catenin in human AF tumour primary cell cultures. It counts as cell-based. On the procedure:
Primary cell cultures from the human AF tumour and normal fascial tissue samples were established. Monolayer cultures were cultured in DMEM supplemented with 10% fetal bovine serum and maintained at 37° C. in 5% CO2. Cells were divided when confluent and experiments were performed between the first and fifth passages. […] Tissue samples were washed twice with PBS and lysed with Reporter Gene Assay Lysis Buffer (Roche). Lysates were centrifuged at 16,000×g for 5 minutes to remove cell debris and quantified using the Bicinchoninic Acid (BCA) Protein Assay (Pierce). Equal amounts of total protein were separated by electrophoresis through an SDS-polyacrylamide gel, transferred to a nitrocellulose membrane (Amersham), and immunoblotted overnight at 4° C. with primary antibodies against phosphoGSK3β ([…], rabbit polyclonal, New England Biolabs), β-catenin (mouse monoclonal, Upstate Biotechnology), total GSK3β (mouse monoclonal, Transduction Laboratories), and GAPDH (mouse monoclonal, Upstate Biotechnology). Horseradish Peroxidase (HRP)-tagged secondary antibodies and Enhanced ChemiLuminescence (Amersham) were used to detect hybridization. Densitometery was performed using the AlphaEaseFC software (Alpha Innotech). Western blotting was performed in triplicates to ensure reproducibility.

The test system of experiment [6] is primary cells derived from human AF tumours. The experiment is described as follows: Trypan Blue cell viability, human AF tumour cells. It counts as cell-based. The following applies: 5 days, vs 0.1% DMSO. On the procedure: (§2) Primary cell cultures from the human AF tumour and normal fascial tissue samples were established. Monolayer cultures were cultured in DMEM supplemented with 10% fetal bovine serum and maintained at 37° C. in 5% CO2. Cells were divided when confluent and experiments were performed between the first and fifth passages.
(§3) Cell viability was measured using the Trypan Blue Dye Exclusion method. Cells were stained with Trypan Blue Dye at a 1:1 ratio, and both live (clear) and dead (blue) cells were accounted for. Proliferation was measured using 5-bromo-2-deoxy-uridine (BrdU) Incorporation assay. After BrdU incubation for 12 hours, cells with incorporated BrdU were identified using […] anti-BrdU antibody and horse anti-mouse antibody conjugated to Alkaline Phosphatase. Presence of BrdU was detected using Alkaline Phosphatase substrate. Percentage of positively stained nuclei out of total nuclei was analyzed over 10 high-powered fields.

Experiment [7] relates to primary cells derived from human aggressive fibromatosis tumours. The experiment can be described thus: BrdU incorporation proliferation assay, human AF tumour cells. The following applies: 5 days, vs DMSO. It counts as cell-based. On the procedure: as §2, §3
A general note: Dividing cells build labelled thymidine or BrdU into new DNA.

Experiment [8] has as its system β-catenin. The experiment is described as follows: Western blot/densitometry of β-catenin in human fibroblast cells. Format: cell-based. On the procedure:
Tissue samples were washed twice with PBS and lysed with Reporter Gene Assay Lysis Buffer (Roche). Lysates were centrifuged at 16,000×g for 5 minutes to remove cell debris and quantified using the Bicinchoninic Acid (BCA) Protein Assay (Pierce). Equal amounts of total protein were separated by electrophoresis through an SDS-polyacrylamide gel, transferred to a nitrocellulose membrane (Amersham), and immunoblotted overnight at 4° C. with primary antibodies against phosphoGSK3β ([…], rabbit polyclonal, New England Biolabs), β-catenin (mouse monoclonal, Upstate Biotechnology), total GSK3β (mouse monoclonal, Transduction Laboratories), and GAPDH (mouse monoclonal, Upstate Biotechnology). Horseradish Peroxidase (HRP)-tagged secondary antibodies and Enhanced ChemiLuminescence (Amersham) were used to detect hybridization. Densitometery was performed using the AlphaEaseFC software (Alpha Innotech). Western blotting was performed in triplicates to ensure reproducibility. Hyperplastic wounds are characterized by elevated β-catenin levels during the proliferative phase.

Experiment [9] concerns β-catenin. The experiment can be described thus: Western blot of β-catenin in wounds of Tcf mice. Format: in vivo, mouse. The following applies: 40 mg/kg daily intraperitoneal, 14 days post-wounding, vs control. The text has this:
A Tcf-reporter construct containing the lacZ gene downstream of a c-Fos minimal promoter and three consensus Tcf-binding motifs was constructed. Upon binding of β-catenin/Tcf complex to Tcf motifs, the expression of lacZ is activated. Tcf mice were wounded as described previously: two 4 mm diameter full-thickness skin wounds were generated using a dermal biopsy punch (Miltex Instrument Company, York, Pa., USA). […] At 14 days post-wounding, wound sizes were examined, and wound tissues were collected for RNA and protein extraction and fixed for histological examination. Tissue samples were washed twice with PBS and lysed with Reporter Gene Assay Lysis Buffer (Roche). Lysates were centrifuged at 16,000×g for 5 minutes to remove cell debris and quantified using the Bicinchoninic Acid (BCA) Protein Assay (Pierce). Equal amounts of total protein were separated by electrophoresis through an SDS-polyacrylamide gel, transferred to a nitrocellulose membrane (Amersham), and immunoblotted overnight at 4° C. with primary antibodies against phosphoGSK3β ([…], rabbit polyclonal, New England Biolabs), β-catenin (mouse monoclonal, Upstate Biotechnology), total GSK3β (mouse monoclonal, Transduction Laboratories), and GAPDH (mouse monoclonal, Upstate Biotechnology). Horseradish Peroxidase (HRP)-tagged secondary antibodies and Enhanced ChemiLuminescence (Amersham) were used to detect hybridization. […]

In experiment [10] the test system is 4 mm full thickness cutaneous wounds. The experiment is described as follows: Wound/scar size in Tcf mice, systemic Nefopam. Format: in vivo, mouse. The settings on record: 4 mm punch wound, 40 mg/kg daily systemic, day 14 post-wounding, vs saline carrier. From the text:
A Tcf-reporter construct containing the lacZ gene downstream of a c-Fos minimal promoter and three consensus Tcf-binding motifs was constructed. Upon binding of β-catenin/Tcf complex to Tcf motifs, the expression of lacZ is activated. Tcf mice were wounded as described previously: two 4 mm diameter full-thickness skin wounds were generated using a dermal biopsy punch (Miltex Instrument Company, York, Pa., USA). […] At 14 days post-wounding, wound sizes were examined, and wound tissues were collected for RNA and protein extraction and fixed for histological examination. […] Cutaneous wounds were generated using a biopsy punch procedure resulting in a 4 mm diameter full thickness circular wound. Scale is in mm units.

For a further experiment, the system named is hyperplastic scars. The experiment is described as follows: TGF-β induced hyperplastic scar model. It counts as in vivo, mouse. The following applies: mice, TGF-β injected prior to wounding, 4 mm punch wounds, 40 mg/kg daily. On the procedure:
Both oral and intraperitoneal administration routes were evaluated (40 mg/kg body weight, daily; 0.1% DMSO as control).

Entries after “also recorded” stand apart in the source; their conditions may differ.

`CN1CCOC(c2ccccc2)c2ccccc2C1` (stereo not drawn) [Nefopam, 5-methyl-1-phenyl-1,3,4,6-tetrahydro-2,5-benzoxazocine]: the percent cell survival entry is “significant decline in the percent of cells surviving” in experiment [1] and “remained relatively unchanged” in experiment [2]. Moreover, in the experiment with β-catenin [3], the β-catenin protein levels entry is “substantially reduce β-catenin protein levels; also recorded: substantially reduced the protein level of β-catenin”. Also, the “number of epithelial-derived polyps in the upper gastrointestinal tract” value in experiment [4] (40 mg/kg daily oral gavage) is given as “no significant differences”. Also, in experiment [4] (40 mg/kg daily oral gavage for 3 months, at 6 months of age, mean ± 95% CI), the “number of AF tumours formed” value is on record as 8.18±1.77. For the same molecule, the figures for the “decrease in total β-catenin levels (densitometry)” value in the experiment on β-catenin [5] (250 μm Nefopam for 5 days vs 0.1% DMSO) and with β-catenin [8] (human fibroblast cell cultures vs 0.1% DMSO) were roughly 5 fold and “approximately 4 fold”, respectively. For the same molecule, the “total β-catenin protein (92 kDa), Western blot” value in the experiment on β-catenin [5] (treatment for 5 days) is “marked decrease in the amount of protein”. For the same molecule, the “number of dead cells” value in experiment [6] was “the number of dead cells did not change; also recorded: no significant differences in the number of dead cells”. Besides, in experiment [6], the “number of live cells” value is listed as “significantly decreased the number of live cells; also recorded: significantly smaller number of live cells”. For the same molecule, the “percent BrdU+/DAPI+ cells (proliferation)” value in experiment [7] is recorded as “significantly reduces the incorporation of BrdU; also recorded: significantly fewer proliferating cells”. Moreover, in the experiment with β-catenin [8] (immortalized human fibroblast cells vs DMSO), the “total β-catenin protein levels, Western blot” value was “significant decrease in total β-catenin protein levels”. Besides, the “β-catenin levels in wounds” value with β-catenin [9] is “decrease in β-catenin levels”. For the same molecule, in [10], the scar diameter entry is listed as “significantly smaller in diameter”. Also, in the experiment with hyperplastic scars, the hyperplastic scar size result was “smaller scars”.

These data come from patent publication US9566263B2, “Methods and formulations for treating scars and β-catenin-mediated disorders” (Hospital for Sick Children, priority 2009, dated 2017).
